Measured values taken from patent US11505569B2, “GalNAc phosphoramidites, nucleic acid conjugates thereof and their use” (Hoffmann-La Roche, Inc., priority 2014, dated 2022).
Strand notation (5' to 3'): a small letter for the sugar, then the base; units joined by * are phosphorothioate-linked, units joined directly phosphodiester-linked; [ ] holds rarer units or linkages, { } end groups; capitals alone tell only the bases. l = locked nucleic acid (LNA); [5mC] = 5-methylcytosine; d = 2'-deoxy (DNA)

Test system: ApoB mRNA
Assay: Knock down of ApoB mRNA in vivo (qPCR on liver and kidney RNA)
Details: C57BL6/J mice, single sc dose 0.25 mg/kg GalNAc2 or equimolar amounts; for down regulation of ApoB mRNA in kidney: sacrificed at day 10, kidney, qPCR (FIG. 7B); for ApoB mRNA knock down in the liver: sacrificed at day 10, liver, qPCR (FIG. 7A)
Protocol: To compare the effect of different GalNAc constructs C57BL6/J mice were injected sc with a single dose saline or 0.25 mg/kg GalNAc2 cluster conjugated LNA-antisense oligonucleotide (GalNAc2) or equimolar amounts of LNA antisense oligonucleotides conjugated to the GalNAc constructs of the invention (FIGS. 6 E, I, M and N) or unconjugated LNA antisense oligonucleotide (see Example 2, table 1 for details) and sacrificed at days 10 where liver and kidney were isolated.
At sacrifice RNA was isolated from liver and kidney and subjected to qPCR with ApoB specific primers and probe to analyze for ApoB mRNA knockdown as described in the protocol below.
The animals were anaesthetised with 70% CO2-30% O2 and sacrificed by cervical dislocation. One half of the large liver lobe and one kidney were minced and submerged in RNAlater.
Total RNA was extracted from a maximum of 30 mg of tissue/sample, homogenized by bead-milling in the presence of lysis buffer (MagnaPure LC RNA Isolation Tissue buffer (#03604721001; Roche)) according to the manufacturer's instructions. The RNA was purified on a MagnaPure 96 System; Roche using Cellular RNA Large Volume Kit (#05467535001; Roche) using the manufacturer's standard protocol. First strand synthesis was performed using Reverse Transcriptase reagents from Ambion according to the manufacturer's instructions.
For each sample 0.5 μg total RNA was adjusted to (10.8 μl) with RNase free H2O and mixed with 2 μl random decamers (50 μM) and 4 μl dNTP mix (2.5 mM each dNTP) and heated to 70° C. for 3 min after which the samples were rapidly cooled on ice. 2 μl 10× Buffer RT, 1 μl MMLV Reverse Transcriptase (100 U/μl) and 0.25 μl RNase inhibitor (10 U/μl) were added to each sample, followed by incubation at 42° C. for 60 min, heat inactivation of the enzyme at 95° C. for 10 min and then the sample was cooled to 4° C. cDNA samples were diluted 1:5 and subjected to RT-QPCR using Taqman Fast Universal PCR Master Mix 2× (Applied Biosystems Cat #4364103) and Taqman gene expression assay (mApoB, Mn01545150_ml and mGAPDH #4352339E) following the manufacturers protocol and processed in an Applied Biosystems RT-qPCR instrument (7500/7900 or ViiA7) in fast mode.

Row | Substance | down regulation of ApoB mRNA in kidney | ApoB mRNA knock down in the liver
1 | Control: unconjugated oligonucleotide of SEQ ID NO: 1 (5′G^mCattggtatT^mCA-3′), without any GalNAc moieties attached (DNA GCATTGGTATTCA; LNA modifications, chemistry not fully specified) [reference compound] | higher | 
2 | N: trivalent GalNAc construct with spacer, chain length 30, conjugated to oligonucleotide SEQ ID NO: 2 (antisense CAGCATTGGTATTCA; sugars from the 5' end d2 l2 d8 l3, [5mC] at 4, 14, backbone not given here; further chemistry not fully specified) | higher for the unconjugated LNA oligonucleotide (control) than for the GalNAc conjugated compounds | comparable effect on the target mRNA (ApoB mRNA) to the GalNAc2 cluster
3 | I: trivalent GalNAc construct, chain length 16, conjugated to oligonucleotide SEQ ID NO: 2 (antisense CAGCATTGGTATTCA; sugars from the 5' end d2 l2 d8 l3, [5mC] at 4, 14, backbone not given here; trivalent GalNAc conjugate, first linkages phosphodiester) | higher for the unconjugated LNA oligonucleotide (control) than for the GalNAc conjugated compounds | comparable effect on the target mRNA (ApoB mRNA) to the GalNAc2 cluster
4 | M: trivalent GalNAc construct with spacer, chain length 16, conjugated to oligonucleotide SEQ ID NO: 2 (antisense CAGCATTGGTATTCA; sugars from the 5' end d2 l2 d8 l3, [5mC] at 4, 14, backbone not given here; further chemistry not fully specified) | higher for the unconjugated LNA oligonucleotide (control) than for the GalNAc conjugated compounds | comparable effect on the target mRNA (ApoB mRNA) to the GalNAc2 cluster
5 | GalNAc2: SEQ ID NO: 1 attached to the GalNAc2 cluster by a phospothioate group; SEQ ID NO: 20 in WO 2014/076196 (antisense lG*l[5mC]*dA*dT*dT*dG*dG*dT*dA*dT*lT*l[5mC]*lA; GalNAc2 cluster attached via phosphorothioate, end not given here) [reference compound] | higher for the unconjugated LNA oligonucleotide (control) than for the GalNAc conjugated compounds | 
6 | E: trivalent GalNAc construct, chain length 10, conjugated to oligonucleotide SEQ ID NO: 2 (5′ caG^mCattggtatT^mCA-3′) (antisense CAGCATTGGTATTCA; sugars from the 5' end d2 l2 d8 l3, [5mC] at 4, 14, backbone not given here; trivalent GalNAc conjugate, first linkages phosphodiester) | higher for the unconjugated LNA oligonucleotide (control) than for the GalNAc conjugated compounds | comparable effect on the target mRNA (ApoB mRNA) to the GalNAc2 cluster
